# Data reported in ChEMBL document CHEMBL6134843, “HDAC11 Inhibition as a Potential Therapeutic Strategy for AML: Target Identification, Lead Discovery, Antitumor Potency, and Mechanism Investigation” (J Med Chem, 2025).
# pIC50: −log10 of the molar value. The source made the active and inactive calls. No cut-off for these calls is given here.
# Assays:
# [1] = system: MLL-AF9; experiment: Antitumor activity against mouse MLL-AF9 cells allografted in female C57BL/6 mouse model assessed as reduction in splenomegaly at 50 mg/kg, ip administered once daily for 23 days; assay type: functional, organism-based; conditions: time 23.0 day
# [2] = system: MLL-AF9; experiment: Synergistic antitumor activity against mouse MLL-AF9 at 1 to 4 uM in presence of cytarabine by CCK-8 assay; assay type: functional, cell-based; conditions: dose 1-4 µM
# [3] = system: U-937; experiment: Induction of ferroptosis in human U-937 cells assessed as increase in lipid peroxidation level incubated for 48 hrs by C11-BODIPY 581/591 staining based flow cytometry analysis; assay type: functional, cell-based; conditions: dose 2.5-10 µM
# [4] = system: Acute myeloid leukemic cell; experiment: Induction of ferroptosis in human Acute myeloid leukemic cells assessed as upregulation of TFRC protein level at 2.5 to 10 uM by Western blot analysis; assay type: functional, cell-based; conditions: dose 2.5-10 µM
# [5] = Toxicity in female C57BL/6 mouse model assessed as change in body weight at 50 mg/kg, ip administered once daily in presence of cytarabine; assay type: organism-based; conditions: in vivo
# [6] = system: U-937; experiment: Induction of ferroptosis in human U-937 cells assessed as upregulation of HMOX1 level at 10 uM in presence of Zinc protoporphyrin by flow cytometry analysis; assay type: functional, cell-based
# [7] = Volume of distribution at steady state in ICR(CD-1) mouse at 5 mg/kg, iv treated up to 24 hrs by LC-MS/MS analysis; assay type: ADME, organism-based; conditions: in vivo, read-out: Vdss
# [8] = molecular target: Keap1/Nrf2 (Homo sapiens) (UniProt Q16236+Q14145); experiment: Activation of Keap1-Nrf2 signaling pathway in human U-937 cells assessed as upregulation of HMOX1 at 5 uM in presence of K67 by Western blot analysis; assay type: cell-based
# Sequence of Keap1/Nrf2 (Homo sapiens) (Q14145 whole entry, looked up): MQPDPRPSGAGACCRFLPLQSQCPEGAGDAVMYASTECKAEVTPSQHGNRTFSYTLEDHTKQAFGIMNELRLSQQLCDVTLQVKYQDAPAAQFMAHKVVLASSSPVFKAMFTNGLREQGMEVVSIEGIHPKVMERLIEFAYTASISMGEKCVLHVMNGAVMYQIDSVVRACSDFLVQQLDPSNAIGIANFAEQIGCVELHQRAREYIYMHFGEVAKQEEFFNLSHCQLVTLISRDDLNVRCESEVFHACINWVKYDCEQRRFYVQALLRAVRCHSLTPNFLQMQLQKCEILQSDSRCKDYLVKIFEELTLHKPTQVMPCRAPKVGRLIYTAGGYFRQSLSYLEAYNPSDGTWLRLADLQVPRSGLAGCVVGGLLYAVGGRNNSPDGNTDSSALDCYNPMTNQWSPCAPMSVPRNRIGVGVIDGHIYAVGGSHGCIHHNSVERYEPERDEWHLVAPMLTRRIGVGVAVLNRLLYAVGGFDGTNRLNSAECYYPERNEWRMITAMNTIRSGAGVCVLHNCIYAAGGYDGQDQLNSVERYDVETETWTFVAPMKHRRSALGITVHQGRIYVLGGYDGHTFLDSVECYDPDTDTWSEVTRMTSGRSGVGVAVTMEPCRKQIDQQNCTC
# Sequence of Keap1/Nrf2 (Homo sapiens) (Q16236 whole entry, looked up): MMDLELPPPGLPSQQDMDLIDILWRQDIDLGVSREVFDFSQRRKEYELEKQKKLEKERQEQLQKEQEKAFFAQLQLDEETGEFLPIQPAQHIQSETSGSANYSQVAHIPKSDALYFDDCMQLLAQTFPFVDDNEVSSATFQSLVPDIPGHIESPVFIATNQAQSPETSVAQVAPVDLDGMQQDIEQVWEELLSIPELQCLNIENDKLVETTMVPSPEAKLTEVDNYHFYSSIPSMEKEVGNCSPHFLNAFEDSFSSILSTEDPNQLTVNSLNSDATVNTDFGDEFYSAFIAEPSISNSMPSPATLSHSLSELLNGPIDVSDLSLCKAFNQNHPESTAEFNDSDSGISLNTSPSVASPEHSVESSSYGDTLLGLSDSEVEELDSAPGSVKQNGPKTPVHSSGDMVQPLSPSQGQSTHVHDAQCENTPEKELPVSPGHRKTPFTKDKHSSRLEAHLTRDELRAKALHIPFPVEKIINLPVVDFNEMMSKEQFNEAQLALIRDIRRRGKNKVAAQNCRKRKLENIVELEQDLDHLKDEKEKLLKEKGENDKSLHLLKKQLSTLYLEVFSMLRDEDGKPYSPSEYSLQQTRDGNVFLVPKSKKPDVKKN
# [9] = system: U-937; experiment: Effect on CDK6 gene expression in human U-937 cells at 10 uM incubated for 48 hrs by RT-qPCR; assay type: functional, cell-based
# [10] = system: U-937; experiment: Antitumor activity against human U-937 cells assessed as cell growth inhibition incubated for 2 days by CCK-8 assay; conditions: U-937, 48 h
# [11] = Induction of cell apoptosis in human THP-1 cells at 5 uM incubated for 48 hrs by Annexin V/DAPI staining based flow cytometry analysis relative to control; assay type: functional
# [12] = system: U-937; experiment: Induction of ferroptosis in human U-937 cells assessed as increase in ferrous ion accumulation incubated for 48 hrs by RhoNox-1 staining based flow cytometry analysis; assay type: functional, cell-based; conditions: dose 2.5-10 µM
# [13] = system: U-937; experiment: Induction of ferroptosis in human U-937 cells assessed as increase in lipid peroxidation accumulation at 5 uM incubated for 48 hrs in presence of ferrostatin-1 by C11-BODIPY 581/591 staining based flow cytometry analysis; assay type: functional, cell-based
# [14] = system: U-937; experiment: Induction of ferroptosis in human U-937 cells assessed as increase in ferrous ion accumulation at 100 uM incubated for 48 hrs by RhoNox-1 staining based flow cytometry analysis; assay type: functional, cell-based
# [15] = system: Acute myeloid leukemic cell; experiment: Induction of ferroptosis in human Acute myeloid leukemic cells assessed as downregulation of GPX4 level by Western blot analysis; assay type: functional, cell-based
# [16] = system: MLL-AF9; experiment: Antitumor activity against mouse MLL-AF9 cells allografted in female C57BL/6 mouse model assessed as reduction in splenomegaly at 50 mg/kg, ip administered once daily for 23 days in presence of cytarabine; assay type: functional, organism-based; conditions: time 23.0 day
# [17] = system: OCI-AML2; experiment: Induction of cell apoptosis in human OCI-AML2 cells incubated for 48 hrs by Annexin V/DAPI staining based flow cytometry analysis; assay type: functional; conditions: dose 2.5-10 µM
# [18] = AUC (0 to infinity) in ICR(CD-1) mouse at 50 mg/kg, ip treated up to 24 hrs by LC-MS/MS analysis; assay type: ADME, organism-based; conditions: in vivo
# [19] = Cmax in ICR(CD-1) mouse at 50 mg/kg, ip treated up to 24 hrs by LC-MS/MS analysis; assay type: ADME, organism-based; conditions: in vivo
# [20] = system: OCI-AML2; experiment: Antiproliferative activity against human OCI-AML2 cells assessed as cell growth inhibition incubated for 2 days by CCK-8 assay; conditions: OCI-AML2, 48 h
# [21] = system: OCI-AML2; experiment: Induction of cell differentiation in human OCI-AML2 cells assessed as increase in CD11b expression at 5 uM incubated for 48 hrs by flow cytometry analysis; assay type: functional, cell-based
# [22] = system: OCI-AML-3; experiment: Antiproliferative activity against human OCI-AML-3 cells assessed as cell growth inhibition incubated for 2 days by CCK-8 assay; conditions: OCI-AML-3, 48 h
# [23] = system: U-937; experiment: Effect on CCND2 gene expression in human U-937 cells at 10 uM incubated for 48 hrs by RT-qPCR; assay type: functional, cell-based
# [24] = system: U-937; experiment: Induction of ferroptosis in human U-937 cells assessed as increase in ROS generation at 5 uM incubated for 48 hrs in presence of ferrostatin-1 by DCFH-DA staining based flow cytometry analysis; assay type: functional, cell-based
# [25] = system: OCI-AML2; experiment: Induction of ferroptosis in human OCI-AML2 cells assessed as increase in ferrous ion accumulation at 100 uM incubated for 48 hrs by RhoNox-1 staining based flow cytometry analysis; assay type: functional, cell-based
# [26] = system: U-937; experiment: Effect on DDIT3 gene expression in human U-937 cells at 10 uM incubated for 48 hrs by RT-qPCR; assay type: functional, cell-based
# [27] = Half life in ICR(CD-1) mouse at 50 mg/kg, ip treated up to 24 hrs by LC-MS/MS analysis; assay type: ADME, organism-based; conditions: in vivo
# [28] = system: THP-1; experiment: Antiproliferative activity against human THP-1 cells assessed as cell growth inhibition incubated for 2 days by CCK-8 assay; conditions: THP-1, 48 h
# [29] = system: U-937; experiment: Effect on MOAP1 gene expression in human U-937 cells at 10 uM incubated for 48 hrs by RT-qPCR; assay type: functional, cell-based
# [30] = system: OCI-AML2; experiment: Induction of cell differentiation in human OCI-AML2 cells assessed as increase in CD14 expression at 5 uM incubated for 48 hrs by flow cytometry analysis; assay type: functional, cell-based
# [31] = system: Acute myeloid leukemic cell; experiment: Induction of ferroptosis in human Acute myeloid leukemic cells assessed as upregulation of TF mRNA level by RT-qPCR analysis; assay type: functional, cell-based
# [32] = Toxicity in female C57BL/6 mouse assessed as drug tolerance at 50 mg/kg, ip administered once daily; assay type: organism-based; conditions: in vivo
# [33] = system: U-937; experiment: Induction of ferroptosis in human U-937 cells assessed as increase in cellular ROS level incubated for 48 hrs by DCFH-DA staining based flow cytometry analysis; assay type: functional, cell-based; conditions: dose 2.5-10 µM
# [34] = MRT (0 to infinity) in ICR(CD-1) mouse at 50 mg/kg, ip treated up to 24 hrs by LC-MS/MS analysis; assay type: ADME, organism-based; conditions: in vivo
# [35] = system: U-937; experiment: Upregulation of p62 mRNA level in human U-937 cells by qRT-PCR analysis; assay type: functional, cell-based
# [36] = Antitumor activity against mouse MLL-AF9 cells allografted in female C57BL/6 mouse model assessed as GFP positive leukemic cells in peripheral blood at 50 mg/kg, ip administered once daily for 32 days by FITC staining based analysis (reference value: 72.5 %); assay type: functional; conditions: time 32 day
# [37] = system: U-937; experiment: Cytotoxicity against human U-937 cells assessed as cell growth inhibition at 5 uM incubated for 24 to 48 hrs by cell counting assay; assay type: functional, cell-based; conditions: time 24-48 hrs
# [38] = Antitumor activity against mouse MLL-AF9 cells allografted in female C57BL/6 mouse model assessed as GFP positive leukemic cells in peripheral blood at 50 mg/kg, ip administered once daily for 32 days in presence of cytarabine by FITC staining based analysis (reference value: 72.5 %); assay type: functional; conditions: time 32 day
compound,measurement,setting,value
O=C(NO)c1cccc2[nH]c(C#Cc3cccc(C(F)(F)F)c3)cc12,Activity,[1],Active
same,Activity,[2],Active
same,Activity,[3],Dose-dependent-effect
same,Activity,[4],Active
same,Activity,[5],Non-toxic
same,Activity,[6],Active; Partially Reversed Zinc Protoporphyrin Inhibition
same,Vd,[7],10.2 L/kg
same,Activity,[8],inactive
same,Activity,[9],Active
same,pIC50,[10],5.02
same,Activity,[11],~20%
same,Activity,[12],Dose-dependent-effect
same,Activity,[13],inactive
same,Activity,[14],Active
same,Activity,[15],Active
same,Activity,[16],Active
same,Activity,[17],Dose-dependent-effect
same,AUC(0-inf),[18],2000 ng·h/mL
same,Cmax,[19],2920 ng/mL
same,pIC50,[20],5.09
same,Activity,[21],Active
same,pIC50,[22],≥ 5.00
same,Activity,[23],Active
same,Activity,[24],inactive
same,Activity,[25],Active
same,Activity,[26],Active
same,half-life,[27],8.95 h
same,pIC50,[28],≥ 5.00
same,Activity,[29],Active
same,Activity,[30],Active
same,Activity,[31],Active
same,Activity,[32],Non-toxic
same,Activity,[33],Dose-dependent-effect
same,MRT inf,[34],6.03 h
same,Activity,[35],Active
same,Activity,[36],17.2%
same,Activity,[37],Active
same,Activity,[38],4.3%
